Test results from ChEMBL document CHEMBL5329166, “Discovery of imeglimin-inspired novel 1,3,5-triazine derivatives as antidiabetic agents in streptozotocin-induced diabetes in Wistar rats via inhibition of DPP-4” (RSC Med Chem, 2023).
Activity calls are given as the source filed them. The rule behind the calls is not given here.

Assays:
Dipeptidyl peptidase 9 = Dipeptidyl peptidase 9 (Homo sapiens, UniProt Q86TI2); experiment: Inhibition of N-terminal GST-tagged human recombinant DPP-9 short form (1 to 863 residues) expressed in Sf9 cells using Ala-Pro-AMC dipeptide as substrate by fluorescence based assay
Dipeptidyl peptidase 9, sequence (Q86TI2 whole entry, the tested form may be a part): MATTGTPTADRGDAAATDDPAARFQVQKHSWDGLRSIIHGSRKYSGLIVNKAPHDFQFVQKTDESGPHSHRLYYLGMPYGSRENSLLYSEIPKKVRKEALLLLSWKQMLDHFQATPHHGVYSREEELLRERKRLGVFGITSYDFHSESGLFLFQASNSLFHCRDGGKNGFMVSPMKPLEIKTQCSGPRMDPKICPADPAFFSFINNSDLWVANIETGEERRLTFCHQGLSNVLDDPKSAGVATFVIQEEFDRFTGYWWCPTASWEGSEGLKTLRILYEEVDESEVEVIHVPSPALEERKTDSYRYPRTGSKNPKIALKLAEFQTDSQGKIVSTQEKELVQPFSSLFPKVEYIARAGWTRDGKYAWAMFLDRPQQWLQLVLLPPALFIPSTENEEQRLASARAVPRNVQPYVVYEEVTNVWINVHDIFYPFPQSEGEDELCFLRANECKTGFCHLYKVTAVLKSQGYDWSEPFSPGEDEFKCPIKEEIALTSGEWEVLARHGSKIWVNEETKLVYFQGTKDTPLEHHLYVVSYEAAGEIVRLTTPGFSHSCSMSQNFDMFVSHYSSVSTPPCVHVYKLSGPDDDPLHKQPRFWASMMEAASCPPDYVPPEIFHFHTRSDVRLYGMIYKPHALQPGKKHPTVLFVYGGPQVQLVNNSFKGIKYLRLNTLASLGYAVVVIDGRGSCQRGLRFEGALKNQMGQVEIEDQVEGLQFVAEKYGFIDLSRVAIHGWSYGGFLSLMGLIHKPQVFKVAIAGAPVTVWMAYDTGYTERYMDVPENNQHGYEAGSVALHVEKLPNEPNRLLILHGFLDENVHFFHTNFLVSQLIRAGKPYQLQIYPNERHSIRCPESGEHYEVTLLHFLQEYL

Rattus norvegicus [1] = experiment: Antioxidant activity in high fat diet/STZ induced diabetic Wistar rat model assessed as healing of hepatocyte nucleus at 3 mg/kg, IG pretreated with STZ for 21 days followed by compound treatment once daily for 21 days by H and E staining based microscopic analysis; format: functional, organism-based; conditions: time 21.0 day
Rattus norvegicus [2] = experiment: Antioxidant activity in high fat diet/STZ induced diabetic Wistar rat model assessed as reduction in mesangial cellularity and matrix at 3 mg/kg, IG pretreated with STZ for 21 days followed by compound treatment once daily for 21 days by H and E staining based microscopic analysis; format: functional, organism-based; conditions: time 21.0 day
Rattus norvegicus [3] = experiment: Antioxidant activity in high fat diet/STZ induced diabetic Wistar rat model assessed as reduction in mesangial cellularity and matrix at 10 to 30 mg/kg, IG pretreated with STZ for 21 days followed by compound treatment once daily for 21 days by H and E staining based microscopic analysis; format: functional, organism-based; conditions: dose 10-30 mg/kg, time 21.0 day
Rattus norvegicus [4] = experiment: Antioxidant activity in IG dosed high fat diet/STZ induced diabetic Wistar rat model assessed as reversal of CAT reduction in liver pretreated with STZ for 21 days followed by compound treatment once daily for 21 days by spectrophotometric analysis; format: functional, organism-based; conditions: dose 3-30 mg/kg, time 21.0 day
Rattus norvegicus [5] = experiment: Antioxidant activity in IG dosed high fat diet/STZ induced diabetic Wistar rat model assessed as reversal of GSH reduction in liver pretreated with STZ for 21 days followed by compound treatment once daily for 21 days by spectrophotometric analysis; format: functional, organism-based; conditions: dose 3-30 mg/kg, time 21.0 day
[6] = Acute toxicity in rat assessed as diarrhoea at 300 to 1000 mg/kg, po measured after 6 hrs; format: organism-based; conditions: in vivo, dose 300-1000 mg/kg
Rattus norvegicus [7] = experiment: (§1) Antioxidant activity in high fat diet/STZ induced diabetic Wistar rat model assessed as healing of hepatocyte cytoplasm at 3 to 10 mg/kg, IG pretreated with STZ for 21 days followed by compound treatment once daily for 21 days by H and E staining based microscopic analysis; format: functional, organism-based; conditions: dose 3-10 mg/kg, time 21.0 day
Rattus norvegicus [8] = experiment: Antidiabetic activity in IG dosed high fat diet/STZ induced diabetic Wistar rat model assessed as reduction in blood sugar level pretreated with STZ for 21 days followed by compound treatment once daily for 21 days by glucose test strips based assay; format: functional, organism-based; conditions: dose 3-30 mg/kg, time 21.0 day
Rattus norvegicus [9] = experiment: (§2) Antioxidant activity in high fat diet/STZ induced diabetic Wistar rat model assessed as repair of pancreatic epithelial cells with reduced fibrosis at 30 mg/kg, IG pretreated with STZ for 21 days followed by compound treatment once daily for 21 days by H and E staining based microscopic analysis; format: functional, organism-based; conditions: time 21.0 day
Rattus norvegicus [10] = experiment: Antioxidant activity in IG dosed high fat diet/STZ induced diabetic Wistar rat model assessed as reversal of GPx reduction in liver pretreated with STZ for 21 days followed by compound treatment once daily for 21 days by spectrophotometric analysis; format: functional, organism-based; conditions: dose 3-30 mg/kg, time 21.0 day
Rattus norvegicus [11] = experiment: as §1, with “appearance” for “healing”, “sufficient cloudy swelling of columnar cells in tubules” for “hepatocyte cytoplasm”, “at” for “at 3 to”; format: functional, organism-based; conditions: time 21.0 day
[12] = Acute toxicity in rat assessed as change in mucosal membranes at 300 to 1000 mg/kg, po measured after 6 hrs; format: organism-based; conditions: in vivo, dose 300-1000 mg/kg
Rattus norvegicus [13] = experiment: Antioxidant activity in IG dosed high fat diet/STZ induced diabetic Wistar rat model assessed as reversal of GPx reduction in kidney pretreated with STZ for 21 days followed by compound treatment once daily for 21 days by spectrophotometric analysis; format: functional, organism-based; conditions: dose 3-30 mg/kg, time 21.0 day
Rattus norvegicus [14] = experiment: Antioxidant activity in IG dosed high fat diet/STZ induced diabetic Wistar rat model assessed as reversal of GSH reduction in kidney pretreated with STZ for 21 days followed by compound treatment once daily for 21 days by spectrophotometric analysis; format: functional, organism-based; conditions: dose 3-30 mg/kg, time 21.0 day
[15] = Acute toxicity in rat assessed as behavioural alterations at 300 to 1000 mg/kg, po measured after 6 hrs; format: organism-based; conditions: in vivo, dose 300-1000 mg/kg
Rattus norvegicus [16] = experiment: Antioxidant activity in high fat diet/STZ induced diabetic Wistar rat model assessed as reduction in hazy swelling of columnar cells in tubules at 3 mg/kg, IG pretreated with STZ for 21 days followed by compound treatment once daily for 21 days by H and E staining based microscopic analysis; format: functional, organism-based; conditions: time 21.0 day
[17] = Acute toxicity in rat assessed as change in sleep patterns at 2000 mg/kg, po measured after 30 mins to 4 hrs; format: organism-based; conditions: in vivo, time 0.5-4 hrs
Rattus norvegicus [18] = experiment: as §2, with “recovery” for “repair”, “cell damage and acini architecture” for “cells with reduced fibrosis”, “10” for “30”; format: functional, organism-based; conditions: time 21.0 day
[19] = Acute toxicity in rat assessed as sleep and sluggish effect at 300 to 1000 mg/kg, po measured after 6 hrs; format: organism-based; conditions: in vivo, dose 300-1000 mg/kg
[20] = Acute toxicity in rat assessed as change in salivation at 300 to 1000 mg/kg, po measured after 6 hrs; format: organism-based; conditions: in vivo, dose 300-1000 mg/kg
[21] = Acute toxicity in rat assessed as change in animal eyes at 300 to 1000 mg/kg, po measured after 6 hrs; format: organism-based; conditions: in vivo, dose 300-1000 mg/kg
[22] = Antioxidant activity assessed as DPPH scavenging activity at 91.26 ug/ml incubated for 30 mins by absorbance based assay; format: functional; conditions: dose 91.26 µg/ml
[23] = Acute toxicity in rat assessed as change in salivation at 2000 mg/kg, po measured after 30 mins to 4 hrs; format: organism-based; conditions: in vivo, time 0.5-4 hrs
[24] = Acute toxicity in rat assessed as animal survival at 2000 mg/kg, po measured after 30 mins to 4 hrs; format: organism-based; conditions: in vivo, time 0.5-4 hrs

With `Nc1nc(NC2=NC(c3ccccc3)=CC(c3cccc([N+](=O)[O-])c3)O2)nc(N2CCOCC2)n1` (stereo not given) the IC50 (Dipeptidyl peptidase 9) was over 400 nM, the Activity (Rattus norvegicus [1]) was “Active” and the Activity (Rattus norvegicus [2]) was “inactive”. For the same compound, the Activity (Rattus norvegicus [3]) was “Active”, the Activity (Rattus norvegicus [4]) was “Dose-Dependent Effect” and the Activity (Rattus norvegicus [5]) was “Dose-Dependent Effect”. The Activity [6] was “Non-Toxic”, the Activity (Rattus norvegicus [7]) was “Active” and the Activity (Rattus norvegicus [8]) was “Dose-Dependent Effect”. For the same compound, the Activity (Rattus norvegicus [9]) was “Active”, the Activity (Rattus norvegicus [10]) was “Dose-Dependent Effect” and the Activity (Rattus norvegicus [11]) was “Active”. For the same compound, the Activity [12] was “Non-Toxic”, the Activity (Rattus norvegicus [13]) was “Dose-Dependent Effect” and the Activity (Rattus norvegicus [14]) was “Dose-Dependent Effect”. For the same compound, the Activity [15] was “Non-Toxic”, the Activity (Rattus norvegicus [16]) was “inactive” and the Activity [17] was “Non-Toxic”. The Activity (Rattus norvegicus [18]) was “Active”, the Activity [19] was “Non-Toxic” and the Activity [20] was “Non-Toxic”. For the same compound, the Activity [21] was “Non-Toxic”, the Activity [22] was “Active” and the Activity [23] was “Non-Toxic”. For the same compound, the Activity [24] was “Non-Toxic”.
